Assay results from the supplement of paper PMC10627819.

Legend:
Assay in all cases: fitness (endpoint OD595 vs no drug) (fraction); higher = more growth
S. pneumoniae D39V = tested on: S. pneumoniae D39V
Summary of the method: (§1)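 Fitness expresses the optical density reached at the stationary-phase transition as a fraction of the robust mean of no-drug control wells. It is capped at 1. Measurements were OD595 every 30 min for 14 h at 37 °C after inoculation of 384-well plates at OD595 0.01 (30 µl, or 55 µl for S. pneumoniae), minus the first reading.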

S. aureus Newman = conditions: one replicate
Summary of the method: as §1

B. subtilis 168 = tested on: B. subtilis 168
Summary of the method: as §1

[1] = first compound 1.5 µg/mL, partner 2 µg/mL
[2] = first compound 1.5 µg/mL, partner 4 µg/mL
[3] = first compound 3 µg/mL, partner 2 µg/mL
[4] = first compound 3 µg/mL, partner 4 µg/mL
[5] = first compound 6 µg/mL, partner 2 µg/mL
[6] = first compound 6 µg/mL, partner 4 µg/mL
[7] = first compound 0.5 µg/mL, partner 1 µg/mL
[8] = first compound 0.5 µg/mL, partner 2 µg/mL
[9] = first compound 1 µg/mL, partner 1 µg/mL
[10] = first compound 1 µg/mL, partner 2 µg/mL
[11] = first compound 1 µg/mL, partner 4 µg/mL
[12] = first compound 2 µg/mL, partner 1 µg/mL
[13] = first compound 2 µg/mL, partner 2 µg/mL
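Also: OD595 on entry to stationary phase over no-drug wells; at most 1.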

## O=C(O)[C@H]1/C(=C/CO)O[C@@H]2CC(=O)N21 [Clavulanic acid] + COc1c(N2C[C@@H]3CCCN[C@@H]3C2)c(F)cc2c(=O)c(C(=O)O)cn(C3CC3)c12 [Moxifloxacin]
S. pneumoniae D39V; first compound 0.5 µg/mL, partner 0.005 µg/mL
  fitness: 0.952
S. pneumoniae D39V; first compound 0.5 µg/mL, partner 0.01 µg/mL
  fitness: 0.982
S. pneumoniae D39V; first compound 0.5 µg/mL, partner 0.02 µg/mL
  fitness: 0.896
S. pneumoniae D39V; first compound 0.5 µg/mL, partner 0.0312 µg/mL
  fitness: 0.0616
S. pneumoniae D39V; first compound 0.5 µg/mL, partner 0.0625 µg/mL
  fitness: 0.0525
S. pneumoniae D39V; first compound 0.5 µg/mL, partner 0.125 µg/mL
  fitness: 0.0269
S. pneumoniae D39V; first compound 1 µg/mL, partner 0.005 µg/mL
  fitness: 0.94
S. pneumoniae D39V; first compound 1 µg/mL, partner 0.01 µg/mL
  fitness: 0.964
S. pneumoniae D39V; first compound 1 µg/mL, partner 0.02 µg/mL
  fitness: 0.908
S. pneumoniae D39V; first compound 1 µg/mL, partner 0.0312 µg/mL
  fitness: 0.198
S. pneumoniae D39V; first compound 1 µg/mL, partner 0.0625 µg/mL
  fitness: 0.173
S. pneumoniae D39V; first compound 1 µg/mL, partner 0.125 µg/mL
  fitness: 0.189
S. pneumoniae D39V; first compound 2 µg/mL, partner 0.005 µg/mL
  fitness: 0.891
S. pneumoniae D39V; first compound 2 µg/mL, partner 0.01 µg/mL
  fitness: 0.939
S. pneumoniae D39V; first compound 2 µg/mL, partner 0.02 µg/mL
  fitness: 0.844
S. pneumoniae D39V; first compound 2 µg/mL, partner 0.0312 µg/mL
  fitness: 0.0371
S. pneumoniae D39V; first compound 2 µg/mL, partner 0.0625 µg/mL
  fitness: 0.0368
S. pneumoniae D39V; first compound 2 µg/mL, partner 0.125 µg/mL
  fitness: 0.0371
S. aureus Newman; first compound 0.03125 µg/mL, partner 0.0075 µg/mL
  fitness: 0.823
S. aureus Newman; first compound 0.03125 µg/mL, partner 0.015 µg/mL
  fitness: 0.742
S. aureus Newman; first compound 0.03125 µg/mL, partner 0.03 µg/mL
  fitness: 0.393
S. aureus Newman; first compound 0.0625 µg/mL, partner 0.0075 µg/mL
  fitness: 0.786
S. aureus Newman; first compound 0.0625 µg/mL, partner 0.015 µg/mL
  fitness: 0.693
S. aureus Newman; first compound 0.0625 µg/mL, partner 0.03 µg/mL
  fitness: 0.312
S. aureus Newman; first compound 0.125 µg/mL, partner 0.0075 µg/mL
  fitness: 0.779
S. aureus Newman; first compound 0.125 µg/mL, partner 0.015 µg/mL
  fitness: 0.699
S. aureus Newman; first compound 0.125 µg/mL, partner 0.03 µg/mL
  fitness: 0.417
B. subtilis 168; first compound 1.5 µg/mL, partner 0.0312 µg/mL
  fitness: 0.0422
B. subtilis 168; first compound 1.5 µg/mL, partner 0.0625 µg/mL
  fitness: 0.0379
B. subtilis 168; first compound 1.5 µg/mL, partner 0.125 µg/mL
  fitness: 0.0596
B. subtilis 168; [1]
  fitness: 0.0304
B. subtilis 168; [2]
  fitness: 0.0307
B. subtilis 168; first compound 1.5 µg/mL, partner 8 µg/mL
  fitness: 0.0071
B. subtilis 168; first compound 3 µg/mL, partner 0.0312 µg/mL
  fitness: 0.0399
B. subtilis 168; first compound 3 µg/mL, partner 0.0625 µg/mL
  fitness: 0.0399
B. subtilis 168; first compound 3 µg/mL, partner 0.125 µg/mL
  fitness: 0.0536
B. subtilis 168; [3]
  fitness: 0.0289
B. subtilis 168; [4]
  fitness: 0.0394
B. subtilis 168; first compound 3 µg/mL, partner 8 µg/mL
  fitness: 0.0171
B. subtilis 168; first compound 6 µg/mL, partner 0.0312 µg/mL
  fitness: 0.0317
B. subtilis 168; first compound 6 µg/mL, partner 0.0625 µg/mL
  fitness: 0.0196
B. subtilis 168; first compound 6 µg/mL, partner 0.125 µg/mL
  fitness: 0.0562
B. subtilis 168; [5]
  fitness: 0.0285
B. subtilis 168; [6]
  fitness: 0.0252
B. subtilis 168; first compound 6 µg/mL, partner 8 µg/mL
  fitness: 0.0156

## O=C(O)[C@H]1/C(=C/CO)O[C@@H]2CC(=O)N21 [Clavulanic acid] + Cc1cc(NS(=O)(=O)c2ccc(N)cc2)no1 [Sulfamethoxazol]
S. pneumoniae D39V; [7]
  fitness: 0.985
S. pneumoniae D39V; [8]
  fitness: 0.982
S. pneumoniae D39V; first compound 0.5 µg/mL, partner 4 µg/mL
  fitness: 0.949
S. pneumoniae D39V; [9]
  fitness: 0.914
S. pneumoniae D39V; [10]
  fitness: 0.93
S. pneumoniae D39V; [11]
  fitness: 0.856
S. pneumoniae D39V; [12]
  fitness: 0.836
S. pneumoniae D39V; [13]
  fitness: 0.904
S. pneumoniae D39V; first compound 2 µg/mL, partner 4 µg/mL
  fitness: 0.786
S. aureus Newman; first compound 0.03125 µg/mL, partner 1 µg/mL
  fitness: 0.994
S. aureus Newman; first compound 0.03125 µg/mL, partner 2 µg/mL
  fitness: 0.974
S. aureus Newman; first compound 0.03125 µg/mL, partner 4 µg/mL
  fitness: 0.983
S. aureus Newman; first compound 0.0625 µg/mL, partner 1 µg/mL
  fitness: ≥ 1
S. aureus Newman; first compound 0.0625 µg/mL, partner 2 µg/mL
  fitness: ≥ 1
S. aureus Newman; first compound 0.0625 µg/mL, partner 4 µg/mL
  fitness: ≥ 1
S. aureus Newman; first compound 0.125 µg/mL, partner 1 µg/mL
  fitness: 0.951
S. aureus Newman; first compound 0.125 µg/mL, partner 2 µg/mL
  fitness: 0.929
S. aureus Newman; first compound 0.125 µg/mL, partner 4 µg/mL
  fitness: 0.929
B. subtilis 168; first compound 1.5 µg/mL, partner 0.5 µg/mL, one replicate
  fitness: 0.974
B. subtilis 168; first compound 1.5 µg/mL, partner 1 µg/mL
  fitness: 0.853
B. subtilis 168; [1]
  fitness: 0.883
B. subtilis 168; [2]
  fitness: 0.93
B. subtilis 168; first compound 3 µg/mL, partner 0.5 µg/mL, one replicate
  fitness: 0.903
B. subtilis 168; first compound 3 µg/mL, partner 1 µg/mL
  fitness: 0.816
B. subtilis 168; [3]
  fitness: 0.839
B. subtilis 168; [4]
  fitness: 0.943
B. subtilis 168; first compound 6 µg/mL, partner 0.5 µg/mL, one replicate
  fitness: 0.952
B. subtilis 168; first compound 6 µg/mL, partner 1 µg/mL
  fitness: 0.704
B. subtilis 168; [5]
  fitness: 0.733
B. subtilis 168; [6]
  fitness: 0.798

## O=C(O)[C@H]1/C(=C/CO)O[C@@H]2CC(=O)N21 [Clavulanic acid] + COc1ccc(C[C@H](N)C(=O)N[C@H]2[C@@H](O)[C@H](n3cnc4c(N(C)C)ncnc43)O[C@@H]2CO)cc1 [Puromycin]
S. pneumoniae D39V; [7]
  fitness: ≥ 1
S. pneumoniae D39V; [8]
  fitness: 0.931
S. pneumoniae D39V; [9]
  fitness: 0.937
S. pneumoniae D39V; [10]
  fitness: 0.891
S. pneumoniae D39V; [11]
  fitness: 0.528
S. pneumoniae D39V; [12]
  fitness: 0.72
S. pneumoniae D39V; [13]
  fitness: 0.793
S. aureus Newman; first compound 0.03125 µg/mL, partner 0.39 µg/mL
  fitness: 0.952
S. aureus Newman; first compound 0.03125 µg/mL, partner 0.78 µg/mL
  fitness: 0.91
S. aureus Newman; first compound 0.03125 µg/mL, partner 1.56 µg/mL
  fitness: ≥ 1
S. aureus Newman; first compound 0.0625 µg/mL, partner 0.39 µg/mL
  fitness: ≥ 1
S. aureus Newman; first compound 0.0625 µg/mL, partner 0.78 µg/mL
  fitness: ≥ 1
S. aureus Newman; first compound 0.0625 µg/mL, partner 1.56 µg/mL
  fitness: 0.99
S. aureus Newman; first compound 0.125 µg/mL, partner 0.39 µg/mL
  fitness: 0.89
S. aureus Newman; first compound 0.125 µg/mL, partner 0.78 µg/mL
  fitness: 0.901
S. aureus Newman; first compound 0.125 µg/mL, partner 1.56 µg/mL
  fitness: 0.894
B. subtilis 168; first compound 1.5 µg/mL, partner 0.39 µg/mL
  fitness: 0.919
B. subtilis 168; first compound 1.5 µg/mL, partner 0.78 µg/mL
  fitness: 0.995
B. subtilis 168; first compound 1.5 µg/mL, partner 1.56 µg/mL
  fitness: 0.888
B. subtilis 168; first compound 3 µg/mL, partner 0.39 µg/mL
  fitness: 0.872
B. subtilis 168; first compound 3 µg/mL, partner 0.78 µg/mL
  fitness: 0.871
B. subtilis 168; first compound 3 µg/mL, partner 1.56 µg/mL
  fitness: 0.851
B. subtilis 168; first compound 6 µg/mL, partner 0.39 µg/mL
  fitness: 0.787
B. subtilis 168; first compound 6 µg/mL, partner 0.78 µg/mL
  fitness: 0.76
B. subtilis 168; first compound 6 µg/mL, partner 1.56 µg/mL
  fitness: 0.775
